Source: patent US12343428B2, “Compositions and methods for cancer treatment” (University of Virginia Patent Foundation, priority 2017, dated 2025)

Experiments:
UNC-10 HNSCC cells [1] = assay: MTS cell viability assay, UNC-10 HNSCC cells; assay type: cell-based, human
Protocol: (§1) To evaluate cell viability in HNSCC cell lines after drug exposure, 5,000 cells were plated in 96-well plates. After 16-30 hours, cells were exposed to each drug alone or in combination, and viability was measured every 24 hours for a total of 48 hours. Viability was assayed using a […] 96® brand AQueous Non-Radioactive Cell Proliferation MTS Assay (Promega Corporation) according to manufacturer's instructions. A minimum of three biologically independent experiments were performed. Results were normalized to the respective negative controls of each experiment.
(§2) To evaluate cell viability of HNSCC cell lines after exposure to various amounts of Erlotinib, 5,000 UNC-10 or SCC-25 cells were plated in 96-well plates. After 16-30 hours, cells were exposed to each Erlotinib at 0 μM, 0.5 μM, 1 μM, 5 μM, 10 μM, and 25 μM, and viability was measured at 24 and 48 hours. Viability was assayed using MTS assay (Promega […] 96® AQueous Non-Radioactive Cell Proliferation Assay) according to manufacturer instructions. A minimum of three biologically independent experiments were performed. Results were normalized to the respective negative controls of each experiment.
(§3) To evaluate cell viability in HNSCC cell lines after exposure to CNLs, similar experiments were performed with five different concentrations of CNLs alone: 0 μM, 2.5 μM, 5 μM, 10 μM, 25 μM. 5,000 UNC-10 or SCC-25 cells were plated in 96-well plates. After 16-30 hours, cells were exposed to each drug alone or in combination, and viability was measured every 24 hours for a total of 48 hours. Viability was assayed using MTS assay (Promega […] 96® AQueous Non-Radioactive Cell Proliferation Assay) according to manufacturer instructions. A minimum of three biologically independent experiments were performed.
(§4) To evaluate cell viability in HNSCC cell lines after exposure to CNLs plus an EGFR inhibitor, 5,000 cells were plated in 96-well plates. After 16-30 hours, cells were exposed to six different concentrations of Erlotinib (0 μM, 0.5 μM, 1 μM, 5 μM, 10 μM, & 25 μM) combined with five different concentrations of CNLs (0 μM, 2.5 μM, 5 μM, 10 μM, & 25 μM), and viability was measured at 24 hours and 48 hours. Viability was assayed using MTS assay (Promega […] 96® AQueous Non-Radioactive Cell Proliferation Assay) according to manufacturer instructions. A minimum of three biologically independent experiments were performed. Results were normalized to the respective negative controls of each experiment.

SCC-25 HNSCC cells = assay: MTS cell viability assay, SCC-25 HNSCC cells; assay type: cell-based, human; details: for viability at 25 µM: Homo sapiens, 48 hours
Protocol: as §1, §2, §3, §4

LNCaP and C4-2 cells = assay: Synergy studies of CNL with abiraterone acetate or enzalutamide (MTS, isobolograms); assay type: cell-based, human; details: two AR positive cell lines; drug alone
Protocol: Viability was assayed using MTS assay (Promega […] 96® AQueous Non-Radioactive Cell Proliferation Assay) according to manufacturer instructions. […] Results were normalized to the respective negative controls of each experiment.

UNC-10 cells = assay: Flow cytometry viability dye assay, UNC-10 cells; assay type: cell-based; details: Homo sapiens, 48 hours, 25 μM Erlotinib
Protocol: (§5) To evaluate cell death in HNSCC cell lines exposed to CNL and/or Erlotinib or Gefitinib, a flow cytometry assay was performed. Cells were plated in 24-well plates for 16-30 hours before being pre-treated for one hour with Erlotinib or Gefitinib (0 μM, 10 μM, 25 μM) and then with CNL (0 μM, 2.5 μM, 5 μM). After 24 or 48 hours, cells were stained with a Fixable Viability Dye EFLUOR™ 780 brand a viability dye (ThermoFischer Scientific Inc.)
(§6) according to the manufacturer's recommendations. The use of this dye allowed us to differentiate between two cell populations: dead or live cells. Flow cytometry controls (alive/stained, alive/non-stained, & dead/stained) were used to allow for a more rigorous discrimination between populations. Results were normalized to the respective negative controls of each experiment. Data analysis was performed using FlowJo Software.
(§7) In order to evaluate cell death in HNSCC cell lines exposed to CNL and/or Erlotinib or Gefitinib, flow cytometry assays were also performed. Cells were plated in 24-well plates for 16-30 hours before being pre-treated for one hour with Erlotinib or Gefitinib (0 μM, 10 μM, 25 μM) and then with CNL (0 μM, 2.5 μM, 5 μM). After 24 or 48 hours, cells were stained with a viability dye (Fixable Viability Dye EFLUOR™ 780, ThermoFischer Scientific) according to the manufacturer recommendations. […]

SCC-25 cells = assay: Flow cytometry viability dye assay, SCC-25 cells; assay type: cell-based; details: Homo sapiens, 48 hours, 25 μM Erlotinib
Protocol: as §5, §6, §7

UNC-7 HNSCC cells = assay: LC-MS/MS sphingolipid profile, UNC-7; assay type: cell-based, human; details: 25 μM Erlotinib, 0, 3, 6 hours
Protocol: (§8) To determine Erlotinib's effect on the sphingolipid profile in HNSCC, 500,000 cells of two different cell lines (UNC-7 & UNC-10) were plated and grown in cell culture. When these cells reached about 70% confluence, they were treated with 25 μM Erlotinib. After addition of the Erlotinib, cells were collected immediately, three hours later, or six hours later. Collected cells were lysed using 0.1× PBS and protein quantification was determined using a Pierce BCA Protein Assay (Thermo Fisher Scientific) according to the manufacturer's instructions. Cell lysates containing 250 μg of protein were then used for lipid extractions. […] The sphingolipids were then analyzed using LC-MS/MS.

UNC-10 HNSCC cells [2] = assay: LC-MS/MS sphingolipid profile, UNC-10; assay type: cell-based, human; details: 25 μM Erlotinib, 0, 3, 6 hours
Protocol: as §8

[3] = system: eight different HNSCC cell lines; assay: MTS cell viability assays in eight HNSCC cell lines; assay type: cell-based, human; details: any of the cell lines, concentrations and time points
Protocol: Drugs concentrations. […] For synergistic experiments: abiraterone acetate (Selleckchem, Houston, Texas, United States of America) was used at 0.5 μM, 1 μM, 5 μM, 10 μM, 20 μM; enzalutamide (Selleckchem) at 1 μM, 5 μM, 10 μM, 20 μM, 30 μM; and CNL at 5 μM, 10 μM, 20 μM, and 30 μM. During synergy studies, each concentration of either abiraterone acetate or enzalutamide was combined with either Ghost (negative) control (nanoliposomes without the C6 ceramide—active agent) or each concentration of CNL. Respective negative controls for abiraterone acetate and enzalutamide were also used. Synergy experiments were performed in LNCaP and C4-2 cells. For synergistic studies using the HNSCC cell lines, all eight cell lines were pre-treated for one hour with either Erlotinib (Selleckchem) or Gefitinib (Sigma-Aldrich Corporation, St. Louis, Missouri, United States of America) before adding CNL. Six different concentrations of Erlotinib and Gefitinib (0 μM, 0.5 μM, 1 μM, 5 μM, 10 μM, and 25 μM) were tested against five different CNL concentrations (0 μM, 2.5 μM, 5 μM, 10 μM, and 25 μM). […]
To evaluate cell viability in HNSCC cell lines after drug exposure, 5,000 cells were plated in 96-well plates. After 16-30 hours, cells were exposed to each drug alone or in combination, and viability was measured every 24 hours for a total of 48 hours. […]

LNCaP cells = assay: LC-MS/MS lipid levels in LNCaP cells; assay type: cell-based, human; details: 10 μM abiraterone acetate alone
Protocol: Cells were plated in 6-well plates for 48 hours before being exposed to CNL 10 μM and/or Abiraterone Acetate 10 μM, as well as respective controls (Ghost liposome and Ethanol respectively). Cells were collected after 1 hour, 4 hours, 12 hours, 24 hours, and 48 hours of exposure. Cells were lysed with 0.1× PBS and protein quantification was determined using a DC™ brand Protein Assay (Bio-Rad Laboratories, Inc., Hercules, California, United States of America). The Metabolomics core at University of Virginia performed lipid extraction, LC-MS/MS injections, and data analysis.

SMILES: COc1cc2ncnc(Nc3ccc(F)c(Cl)c3)c2cc1OCCCN1CCOCC1 [Gefitinib]
- effect on viability (UNC-10 HNSCC cells [1]; Gefitinib at 5 μM or less, 24 hours or 48 hours): little effect
- effect on viability (UNC-10 HNSCC cells [1]; Gefitinib higher concentrations (10, 25 μM), particularly at 24 hours): reduced viability
- viability at 5 µM (UNC-10 HNSCC cells [1]; Homo sapiens, 48 hours, 5 μM Gefitinib): 97%
- effect on viability compared with UNC-10 (SCC-25 HNSCC cells; Gefitinib alone, 24 hours and 48 hours): less striking
- viability at 25 µM (SCC-25 HNSCC cells; 25 μM Gefitinib): 81%

SMILES: CNC(=O)c1ccc(N2C(=S)N(c3ccc(C#N)c(C(F)(F)F)c3)C(=O)C2(C)C)cc1F [Enzalutamide]
- reduction of viability as single treatment (LNCaP and C4-2 cells): not as effective as a single treatment

SMILES: C#Cc1cccc(Nc2ncnc3cc(OCCOC)c(OCCOC)cc23)c1 [Erlotinib]
- effect on cell viability (UNC-10 HNSCC cells [1]; Erlotinib alone 0.5-25 μM, 24 or 48 hours): little effect
- viability at 25 µM (UNC-10 HNSCC cells [1]; Homo sapiens, 48 hours, 25 μM Erlotinib): 90%
- effect on cell viability (SCC-25 HNSCC cells; Erlotinib alone, higher concentrations, 24 or 48 hours): not statistically significant
- viability at 25 µM (SCC-25 HNSCC cells; 25 μM Erlotinib): 89%
- viability at 25 µM (UNC-10 cells): 91%
- viability at 25 µM (SCC-25 cells): 89%
- sphingolipid levels (UNC-7 HNSCC cells): able to alter sphingolipid levels
- sphingolipid levels (UNC-10 HNSCC cells [2]): able to alter sphingolipid levels
- effect of Erlotinib alone on cell viability [3]: failing to produce any meaningful effects

SMILES: CC(=O)O[C@H]1CC[C@@]2(C)C(=CC[C@@H]3[C@@H]2CC[C@]2(C)C(c4cccnc4)=CC[C@@H]32)C1 [abiraterone acetate]
- reduction of viability as single treatment (LNCaP and C4-2 cells): effective in reducing the viabilities of PCa cells
- C6 ceramide levels (LNCaP cells): not changed
- total ceramide levels (LNCaP cells): not changed
